The results in this text go back to publication PMC8112869, “Therapeutic inhibition of keratinocyte TRPV3 sensory channel by local anesthetic dyclonine” (eLife, 2021).

The subject of assay [1] is T-Rex 293 cells expressing WT TRPV3. Put plainly: Cell death analysis by flow cytometry (propidium iodide), cells expressing WT TRPV3. In kind it is cell-based, Homo sapiens. The protocol:
(§1) T-Rex 293 cells were grown in DMEM containing 4.5 mg/ml glucose, 10% (vol/vol) FBS, 50 units/ml penicillin, 50 μg/ml streptomycin, and blasticidin S (10 μg/ml), and were incubated at 37°C in a humidified incubator gassed with 5% CO2. Transfections were performed in wells of a 24-well plate using lipofectamine 2000 (Invitrogen). […] Expression of GFP fluorescence detected by an epifluorescence microscope was used as an indicator of gene expression. After treatments with the compounds for 12 hr, cells were collected, washed twice with PBS, resuspended, and then dyed with propidium iodide (PI, Thermo Fisher Scientific) in the dark according to the manufacturer’s instructions. The membrane integrity of the cells was assessed using a BD FACSCelesta flow cytometer equipped with BD Accuri C6 software (BD Biosciences, USA).
A general note: In flow cytometry, cells or beads pass a laser one at a time.

Assay [2] relates to T-Rex 293 cells expressing TRPV3 G573S. Put plainly: Cell death analysis by flow cytometry (propidium iodide), cells expressing G573S mutant. In kind it is cell-based, Homo sapiens. The protocol:
as §1

A further assay concerns the target T1, mouse TRPV3 (Mus musculus, UniProt Q8K424).
T1 sequence (Q8K424 1-791): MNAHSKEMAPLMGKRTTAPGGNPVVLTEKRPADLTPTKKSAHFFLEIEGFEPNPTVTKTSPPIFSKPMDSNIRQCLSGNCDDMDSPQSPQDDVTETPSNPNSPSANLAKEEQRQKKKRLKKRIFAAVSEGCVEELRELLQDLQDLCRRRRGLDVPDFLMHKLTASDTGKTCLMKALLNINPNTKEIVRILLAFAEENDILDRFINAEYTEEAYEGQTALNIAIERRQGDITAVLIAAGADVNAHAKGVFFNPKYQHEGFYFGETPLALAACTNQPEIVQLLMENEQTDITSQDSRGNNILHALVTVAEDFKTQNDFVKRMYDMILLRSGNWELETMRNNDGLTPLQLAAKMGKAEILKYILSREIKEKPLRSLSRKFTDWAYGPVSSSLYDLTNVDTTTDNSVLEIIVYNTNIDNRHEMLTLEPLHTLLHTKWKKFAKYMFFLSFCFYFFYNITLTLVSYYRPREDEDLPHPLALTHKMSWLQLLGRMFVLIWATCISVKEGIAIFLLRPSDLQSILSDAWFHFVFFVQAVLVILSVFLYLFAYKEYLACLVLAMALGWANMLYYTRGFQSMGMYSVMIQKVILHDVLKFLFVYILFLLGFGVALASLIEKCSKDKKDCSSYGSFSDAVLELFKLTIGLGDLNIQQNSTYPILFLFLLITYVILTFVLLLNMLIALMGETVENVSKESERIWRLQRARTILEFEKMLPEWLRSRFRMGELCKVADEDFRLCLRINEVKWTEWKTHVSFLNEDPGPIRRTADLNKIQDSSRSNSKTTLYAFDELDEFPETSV
In words: Single-channel inside-out patch recording of TRPV3 from HEK 293T cells. In kind it is cell-based. More on the design: expressed in transfected cells; host or cells: HEK 293T. An excerpt: Conventional whole-cell and excised patch-clamp recording methods were used. For the recombinant expressing system, green fluorescent EGFP was used as a surface marker for gene expression. Recording pipettes were pulled from borosilicate glass capillaries (World Precision Instruments) and fire-polished to a resistance between 2 and 4 MΩ when filled with internal solution containing (in mM) 140 CsCl, 2.0 MgCl2, 5 EGTA, and 10 HEPES, pH 7.4 (adjusted with CsOH). Bath solution contained (in mM): 140 NaCl, 5 KCl, 3 EGTA, and 10 HEPES, pH 7.4 adjusted with NaOH. For recordings in keratinocytes, the bath saline consisted of (in mM) 140 NaCl, 5 KCl, 2 MgCl2, 2 CaCl2, 10 glucoses, and 10 HEPES, pH 7.4 adjusted with NaOH, and the pipette solution contained (in mM) 140 CsCl, 5 EGTA, and 10 HEPES, pH 7.3 adjusted with CsOH. For single-channel recordings, the pipette solution and bath solution were symmetrical and contained (in mM) 140 NaCl, 5 KCl, 3 EGTA, and 10 HEPES, pH 7.4. Isolated cells were voltage clamped and held at –60 mV using an EPC10 amplifier with the Patchmaster software (HEKAElectronics, Lambrecht, Germany). For a subset of recordings, currents were amplified using an Axopatch 200B amplifier (Molecular Devices, Sunnyvale, CA) and recorded through a BNC-2090/MIO acquisition system (National Instruments, Austin, TX) using QStudio developed by Dr. Feng Qin at State University of New York at Buffalo. Whole-cell recordings were typically sampled at 5 kHz and filtered at 1 kHz, and single-channel recordings were sampled at 25 kHz and filtered at 10 kHz. The compensation of pipette series resistance and capacitance was compensated using the built-in circuitry of the amplifier (>80%) to reduce voltage errors. Exchange of external solution was performed using a gravity-driven local perfusion system. As determined by the conductance tests, the solution around a patch under study was fully controlled by the application of a flow rate of 100 μl/min or greater. Dyclonine hydrochloride, MTSET and carvacrol were purchased from MCE (MedChemExpress). Unless otherwise noted, all chemicals were purchased from Sigma (Millipore Sigma, St. Louis, MO). Water-insoluble reagents were dissolved in pure ethanol or DMSO to make a stock solution and diluted into the recording solution at the desired final concentrations before the experiment. […] In the scratching behavior experiments, carvacrol was first dissolved in 10% ethanol and then diluted in normal saline before administration. All experiments except those for heat activation were performed at room temperature (22–24℃).

Where [3] appears, read: dyclonine (50 μM) added to 2-APB (30 μM), averaged.
Where [4] appears, read: dyclonine (50 μM) or 2-APB (30 μM) alone, averaged from seven experiments.

As for `CCCCOc1ccc(C(=O)CCN2CCCCC2)cc1` [dyclonine], the cell death ratio in assay [1] (setting [3]) is on record as 9.12% ± 1.42%; in assay [2] (setting [3]), 17.68% ± 5.66%; in assay [2] (setting [4]), 12.45% ± 2.54%. The same molecule yielded a unitary conductance on mouse TRPV3 (10 μM 2-APB with 30 μM dyclonine) of 179.2 ± 5.5 pS. Further, the single-channel open probability at mouse TRPV3 (30 μM dyclonine with 10 μM 2-APB, +60 mV) was 0.12 ± 0.01; at mouse TRPV3 (30 μM dyclonine with 10 μM 2-APB, –60 mV) it was 0.08 ± 0.01.
In the case of `NCCOB(c1ccccc1)c1ccccc1` [2-APB, 2-aminoethoxydiphenyl borate], the cell death ratio in assay [1] (2-APB (30 μM) alone, 12 hr, averaged from seven experiments) was 43.73% ± 3.46%; in assay [2] (setting [4]), 53.60% ± 5.88%. For the same molecule, the unitary conductance at mouse TRPV3 (10 μM 2-APB before dyclonine treatment) is listed as 163.6 ± 6.4 pS. In addition, the single-channel open probability on mouse TRPV3 (10 μM 2-APB without dyclonine, +60 mV) is recorded as 0.82 ± 0.02; on mouse TRPV3 (10 μM 2-APB without dyclonine, –60 mV), 0.8 ± 0.02.
